Tested on: rat monocrotaline-administered pulmonary hypertension model
Assay: Rat monocrotaline-administered pulmonary hypertension model, administration from day of monocrotaline
Format: in vivo, rat (Wistar strain)
Conditions: for heart rate vs pulmonary hypertension control group / systemic systolic pressure vs pulmonary hypertension control group: Dunnett's test; for right ventricular systolic pressure vs pulmonary hypertension control group / right ventricular weight ratio vs pulmonary hypertension control group: Dunnett's test p<0.05
Protocol: Example Compound 1 or 2 was administered to a rat monocrotaline-administered pulmonary hypertension model (Journal of Pharmacological Sciences, 2009, vol. 111, p. 235-243), and the therapeutic effect of the nipecotic acid derivative (I) or a pharmaceutically acceptable salt thereof on pulmonary hypertension was evaluated.
Rats (Wistar strain, male, 5 weeks old; JAPAN SLC, Inc.) with pulmonary hypertension induced by subcutaneous administration of an aqueous monocrotaline (Sigma Corporation) solution (60 mg/kg) to the back were provided as “group with induced pulmonary hypertension”. On the other hand, rats to which water for injection was similarly administered were provided as “normal group”.
To rats in the group with induced pulmonary hypertension, Example Compound 1 (3, 10 or 30 mg/kg) or a positive control compound tadalafil (10 mg/kg) was orally administered once per day for 24 days from the day of administration of monocrotaline. The Example Compound 1 and tadalafil were used as suspensions in 0.5% aqueous methyl cellulose solution supplemented with 0.5% Tween 80. The groups in which Example Compound 1 was administered at doses of 3, 10 and 30 mg/kg were provided as “Example Compound 1 (3 mg/kg)-administered group”, “Example Compound 1 (10 mg/kg)-administered group” and “Example Compound 1 (30 mg/kg)-administered group”, respectively. The group in which tadalafil was administered at a dose of 10 mg/kg was provided as “tadalafil-administered group”. In addition, for comparative control, 0.5% aqueous methyl cellulose solution supplemented with 0.5% Tween 80 was similarly administered to rats in the group with induced pulmonary hypertension, to provide “pulmonary hypertension control group”. Similarly, 0.5% aqueous methyl cellulose solution supplemented with 0.5% Tween 80 was administered in the normal group.
On the next day of the last administration of the test substance, the right ventricular systolic pressure, systemic systolic pressure and heart rate were measured. The measurement of the right ventricular systolic pressure and the systemic systolic pressure was carried out using an amplifier for blood pressure measurement (Nihon Kohden Corporation). The measurement of the heart rate was carried out using an instant heart rate meter unit (Nihon Kohden Corporation). On the same day, the body weight, lung wet weight, and wet weights of the right ventricle, left ventricle and septum were measured to determine the right ventricular weight ratio (right ventricular weight/(septum weight+left ventricular weight)) and the lung weight ratio (lung weight/body weight).
The lungs were stored by immersion in formalin after measurement of the wet weight. The formalin-fixed lungs were embedded in paraffin, and sections were prepared. Immunostained tissue samples were prepared using an anti-sEH antibody to study expression of sEH. Pathological specimens were prepared by Elastica-van Gieson staining to study thickening of pulmonary arteries. Immunostained tissue samples were prepared using an anti-PCNA antibody to study cell growth. The right ventricle was stored by immersion in formalin after measurement of the wet weight. The formalin-fixed right ventricle was embedded in paraffin, and sections were prepared. Pathological specimens were prepared by HE staining to study myocardial hypertrophy.
The removed lungs were homogenized in a buffer, and 14,15-EET and 14,15-DHET were extracted. The extracted 14,15-EET was hydrolyzed for conversion to 14,15-DHET, and the 14,15-DHET concentration was measured by the ELISA method. The increase in the concentration of 14,15-DHET due to the hydrolysis was regarded as the 14,15-EET concentration, and the 14,15-EET/14,15-DHET ratio was determined.
FIGS. 4 to 6 show the results on the right ventricular systolic pressure, right ventricular weight ratio and lung weight ratio determined on the next day of the last administration of the test compound. […]

[1] = 3 mg/kg orally once per day for 24 days
[2] = 10 mg/kg orally once per day for 24 days from day of monocrotaline
[3] = 10 mg/kg orally once per day for 24 days
[4] = 30 mg/kg orally once per day for 24 days from day of monocrotaline
[5] = 30 mg/kg orally once per day for 24 days

Row | Compound | heart rate vs pulmonary hypertension control group [1] | systemic systolic pressure vs pulmonary hypertension control group [1] | thickening of pulmonary arteries in lungs vs pulmonary hypertension control group (3 mg/kg, Elastica-van Gieson staining) | myocardial hypertrophy of the right ventricle vs pulmonary hypertension control group (3 mg/kg, HE staining) | cell growth in lungs vs pulmonary hypertension control group (3 mg/kg, anti-PCNA immunostaining) | lung weight ratio vs pulmonary hypertension control group [2] | right ventricular systolic pressure vs pulmonary hypertension control group [2] | right ventricular weight ratio vs pulmonary hypertension control group [2] | heart rate vs pulmonary hypertension control group [3] | systemic systolic pressure vs pulmonary hypertension control group [3] | 14,15-EET/14,15-DHET ratio in lungs vs pulmonary hypertension control group (10 mg/kg, ELISA) | right ventricular systolic pressure vs pulmonary hypertension control group [4] | right ventricular weight ratio vs pulmonary hypertension control group [4] | heart rate vs pulmonary hypertension control group [5] | systemic systolic pressure vs pulmonary hypertension control group [5]
1 | CCC(=O)NC1(C(=O)N2CCC[C@@H](C(=O)NCc3ccc(C#N)cc3OC(F)(F)F)C2)CCC1 [Example Compound 1, (R)—N-(4-cyano-2-(trifluoromethoxy)benzyl)-1-(1-propionamidocyclobutanecarbonyl)piperidine-3-carboxamide] | not significantly different | not significantly different | less thickened pulmonary arteries | less myocardial hypertrophy | less cell growth | statistically significantly lower | statistically significantly lower | statistically significantly lower | not significantly different | not significantly different | higher | statistically significantly lower | statistically significantly lower | not significantly different | not significantly different
2 | CC(C)(NS(C)(=O)=O)C(=O)N1CCC[C@@H](C(=O)NCc2ccc(C#N)cc2OC(F)(F)F)C1 [Example Compound 2, (R)—N-(4-cyano-2-(trifluoromethoxy)benzyl)-1-(2-methyl-2-(methylsulfonamido)propanoyl)piperidine-3-carboxamide] | – | – | – | – | – | lower | statistically significantly lower | statistically significantly lower | not significantly different | not significantly different | – | – | – | – | –

Source: patent US20150065717A1, “NIPECOTIC ACID DERIVATIVE AND USE THEREOF FOR MEDICAL PURPOSES” (Toray Industries, Inc., priority 2012, published 2015)
